Measurements reported in patent US20040132731A1, “Novel combination” (priority 2002, published 2004).

System: spontaneously hypertensive rat (SHR)
Test: Animal study: change in mean arterial pressure in anaesthetised spontaneously hypertensive rats
Type: in vivo
Details: anaesthetised male SHR; for Change in mean arterial pressure from vehicle: n=6/group, infusion at 0.5 mL/h, candesartan 0.02 μg/kg/min, PDE5 inhibitor 15.61 μg/kg/min, combination 15.61 μg/kg/min+0.02 μg/kg/min; for fall in MAP: text restatement of the table, combination vs sum of the two individual effects p=0.058
Protocol: The spontaneously hypertensive rat (SHR) is a widely used model of human hypertension. Anaesthetised male SHRs (250-450 g) were surgically prepared for the measurement of systolic, diastolic and mean arterial pressure. Cannulae were inserted into the jugular veins and carotid artery. The trachea was also cannulated to facilitate respiration. Following a 60 min post-surgical stabilisation period, arterial blood pressure and heart rate were recorded via a pressure transducer and PoNeMah data acquisition system.
Solutions of candesartan (0.02, μg/kg/min), PDE5 inhibitor (15.61 μg/kg/min) and a combination of PDE5 inhibitor and candesartan (15.61 μg/kg/min+0.02, μg/kg/min) were infused as appropriate at a rate of 0.5 mL/h. Control animals received compound vehicle (5% DMSO, 10% PEG200, 85% water for injection (v/v)).
Baseline haemodynamic parameters were recorded. Animals (n=6/group) were randomised to receive a primed infusion of either vehicle or PDE5 Inhibitor for a period of 60 min. At this point, these groups were further randomised to receive either (i) vehicle or PDE5 inhibitor alone, (ii) candesartan alone or (iii) a combination of candesartan and PDE5 inhibitor. Changes in mean arterial pressure were monitored during the study period.

Structure (SMILES)	Change in mean arterial pressure from vehicle	fall in MAP
CCOc1nc2cccc(C(=O)O)c2n1Cc1ccc(-c2ccccc2-c2nnn[nH]2)cc1 [candesartan]	−3.2 mmHg	3.2 mmHg
CCc1c2nc(-c3cc(S(=O)(=O)N4CCN(CC)CC4)cnc3OCCOC)[nH]c(=O)c2nn1Cc1ccccn1 [PDE5 inhibitor, 3-ethyl-5-[5-(4-ethylpiperazin-1-ylsulphonyl)-2-(2-methoxyethoxy)pyridin-3-yl]-2 (pyridin-2-yl)methyl-2,6-dihydro-7H-pyrazolo[4,3-d]pyrimidin-7-one]	−7.4 mmHg	7.4 mmHg
